Results on two substances are retold here after patent US20250179126A1, “A NOVEL PEPTIDE FROM A PHOTOSYNTHETIC BACERIUM DIRECTLY TARGETS MITOCHONDRIA TO TRIGGER APOPTOSIS IN ADVANCED PROSTATE CANCER CELLS” (priority 2022, published 2025).

“Also recorded” adds a separate entry of the source.

The subject of series [1] is spontaneous mammary tumors. The series is classed as in vivo, MMTV-PyMT transgenic mice. From the text:
FIG. 26A-26H: Azurin-producing P. aeruginosa in human tumors. The azurin-encoding gene (azu) was detected in tumors from patients with breast cancer and melanoma. It was amplified by PCR with P. aeruginosa azu-specific primers and confirmed by DNA sequencing. […] In melanoma (26A), 27.6% (8 of 29) of primary tumors and 5.9% (2 of 34) of metastatic tumors were azu positive (P<0.05). In breast cancer (26B), 22.7% (5 of 22) of primary tumors and 14.3% (2 of 14) of metastatic tumors were azu positive (P>0.05). In addition, frozen tumor samples were processed for immunogold transmission electron microscopy (TEM) by using anti-P. aeruginosa and anti-azurin antibodies. […] Magnification: ×3000. […] Survival analysis of patients with azu-positive vs. azu-negative primary melanoma (26E, P<0.01) and primary breast cancer (26F, P<0.05) tumors. 26G—Hemizvgous MMTV-PyMT transgenic mice were injected with either PBS control or 2.5 mg/kg azurin (intraperitoneally, 3× weekly) for 2 months. The mean+SE values of tumor volume were calculated. h Tumor-free survival curve was generated with the PBS control and 2.5 mg/kg azurin groups of MMTV-PyMT transgenic mice. Median tumor-free survival of the PBS control and azurin-treatment groups was 67 and 72 days, respectively. P=0.015
FIG. 29A-29C: Effect of azurin from P. aeruginosa in a transgenic animal model. 29A. Near-infrared red (NIR) dye-conjugated azurin or PBS was injected i.v. into transgenic mice that spontaneously develop mammary tumors. Twenty-four hours after azurin injection, mice were imaged with a photodynamic eye (PDE) system (left: photographic image, right: NIR fluorescence image at 800 nm). 29B. At the end of the study, the tumors were resected.
Effect of azurin on transgenic mice: Hemizygous MMTV-PyMT (mouse mammary tumor virus-polyoma middle tumor-antigen) female mice were obtained from The Jackson Laboratory. […] In order to reach this level of azurin in mouse (25 g-body weight, 2 ml total blood volume), azurin does at 2.5 mg/kg was determined. Tumor volume and body weights were determined three times weekly. […]

For series [2], the system named is MCF-7 breast cancer cells. As to the kind of experiment: MTT cell viability assay, MCF-7 breast cancer cells. The series is classed as cell-based, human. The following applies: MCF-7, 5-100 μM, 24 hr. The source says: Cell viability was detected by MTT assays, and the control (PBS-treated) cells were considered 100% viable. Mean±SE (N=3). *P<0.05, **P<0.01, ***P<0.001.
(§1) Cell lines and culture: Human cancer and noncancer (immortalized and nonimmortalized) cell lines were obtained from the American Type Culture Collection [prostate cancer (PC3, DU145 and LNCaP), normal prostate (CRL11611), breast cancer (MCF-7), ovarian cancer (SK-OV3 adenocarcinoma), lung cancer (A549)]. MDD2 breast cancer cells (p53 dominant-negative) were provided courtesy of Dr Andrei V. Gudkov, Roswell Park Cancer Institute. 20 All cell lines were cultured in MEM-E (Invitrogen) supplemented with 10% heat-inactivated fetal bovine serum (Atlanta Biological, Inc.), 100 units/mL penicillin, and 100 μg/mL streptomycin at 37° C. in 5% CO2.
(§2) Cytotoxicity assay: The MTT assay was performed as we previously described (Cha et al., Cancer Research 2020, 80: 1615-1623).
A general note: Tetrazolium dyes change colour on reduction, which living cells bring about.

The test system of series [3] is DU145 prostate cancer cells. In words: MTT cell viability assay, DU145 prostate cancer cells. The series is classed as cell-based, human.
The subject of series [4] is normal prostate cells CRL11611. As to the kind of experiment: MTT cell viability assay, normal prostate CRL11611 cells. The series is classed as cell-based, human. The following applies: normal prostate CRL11611 (p53+, AR+), 24-72 hr; paclitaxel 1 nM.
Text: FIG. 4A-4D: Effect of peptides on prostate cancer cell lines with differences in p53 and AR expression status. […] Control (PBS)-treated cells were considered to have 100% viability. Mean±SE (N=3).
as §1, §2

The test system of series [5] is PC3 cells. In words: Cellular membrane toxicity, LDH leakage assay. The series is classed as cell-based, human. To be noted: PC3, 0.2-200 μM, 37° C. The protocol:
FIG. 6A-6B: Cellular membrane toxicity assays. […] Cells treated with lysis buffer were defined as having 100% LDH release. Mean±SE (N=3).
Cellular membrane toxicity: LDH assays were performed as we previously described (Cha et al., Cancer Research 2020, 80: 1615-1623).
In general terms: LDH in the medium is a marker of cell lysis.

Series [6] relates to LNCaP cells. In words: Annexin-V apoptosis assay by flow cytometry, LNCaP. The series is classed as cell-based, human. To be noted: 48 hr, Ptxl 1 nM, p28 50 μM, aurA/aurB 0.5-50 μM. The method, then:
FIG. 7A-7D: Determination of apoptotic cell death. Prostate cancer cell lines (7A: LNCaP, 7B: DU145 and 7C: PC3) and normal prostate CRL11611 cells (7D) were exposed to the indicated agents for 48 hr and stained using apoptosis assay kits according to the manufacturer's instructions. The samples were analyzed by flow cytometry. Mean±SE (N=3).
After 48 hr, annexin-V apoptosis assays (Thermo Fisher Scientific) were conducted to detect apoptotic cells. At least 10,000 cells in each case were analyzed by FACS (RRC, UIC).

Regarding “azurin: 14 kDa periplasmic copper protein of 128 amino acids from P. aeruginosa; purified recombinant”, the tumor-free survival entry in series [1] (2.5 mg/kg azurin i.p. 3× weekly) is “significantly extended”. Besides, the “tumor growth (tumor volume)” value in series [1] (2.5 mg/kg azurin i.p. 3× weekly, 2 months) was “significantly inhibited”. In series [1] (2.5 mg/kg azurin intraperitoneally, 3× weekly), the Median tumor-free survival was 72 days.
Consider “LVN GGD DVA AAV NTA AQN NAD ALF VPPP (LVNGGDDVAAAVNTAAQNNADALFVPPP) [aurB]”, for which the “anti-proliferative effect (MTT cell viability)” value in series [2] is listed as “clear dose-dependent effects”; in series [3] (DU145, 5-100 μM, 24 hr), “clear dose-dependent effects”. The “cytotoxic effect (MTT cell viability)” value is “significantly induced dose-dependent cytotoxic effects; also recorded: more sensitive than the normal prostate cell line” in series [3] (DU145 (p53-mutant, AR−), 24-72 hr, paclitaxel 1 nM) and “not evident” in series [4]. The inhibition rate in series [3] (DU145, 100 μM for 72 hr) was about 50%. Moreover, the “cellular membrane toxicity (LDH release)” value in series [5] is recorded as “Neither aurA nor aurB induced cellular membrane toxicity at any concentrations”. Further, the apoptotic cell death entry in series [6] is “induced significant dose-dependent apoptosis”.
